*1 amine or outer side, *2 acyl side, *3 side chain or, on linkers, in order; H or OH if unused. Where a SMILES comes first, the peptide text is derived from it. Bridges are numbered along the chain shown (N, C = ends). [ ]: non-standard residue; d: D form. ξ: configuration not given here. X5 = O=C(O)CC[C@H](N[*:1])C(=O)C1C[C@H](O)C[C@H]1C(=O)[*:2]; Trp(1-CH2COOH) = N[C@@H](Cc1cn(CC(=O)O)c2ccccc12)C(=O)O; Phe(3,4,5-F3) = N[C@@H](Cc1cc(F)c(F)c(F)c1)C(=O)O; Phe(4-Cl) = N[C@@H](Cc1ccc(Cl)cc1)C(=O)O; 1Nal = N[C@@H](Cc1cccc2ccccc12)C(=O)O; d(cisHyp) = O=C(O)[C@H]1C[C@@H](O)CN1; Bta = N[C@@H](Cc1csc2ccccc12)C(=O)O; Hyp = O=C(O)[C@@H]1C[C@@H](O)CN1; NMeF = CN[C@@H](Cc1ccccc1)C(=O)O; dHyp = O=C(O)[C@H]1C[C@H](O)CN1; NMeNle = CCCC[C@H](NC)C(=O)O; Pip = O=C(O)[C@@H]1CCCCN1; dPip = O=C(O)[C@H]1CCCCN1; hSer = N[C@@H](CCO)C(=O)O; NMeA = CN[C@@H](C)C(=O)O; Dab = NCC[C@H](N)C(=O)O; Dap = NC[C@H](N)C(=O)O; ξC = NC(CS)C(=O)O; Sar = CNCC(=O)O

The target in this assay is T1, Human PD-L1/PD-1 (Homo sapiens, UniProt Q9NZQ7).
T1 construct: TVMV protease cleavage site (C); made in house; host or cells: HEK293T cells
Description: HTRF Human PD-L1/PD-1 binding assay (PD-1-Ig/PD-L1-His). Conditions: PD-L1-His 10 nM, PD-1-Ig 20 nM; class symbol; read-out: HTRF Human PD-L1/PD-1 Binding Assay IC50 Range. An outline of the steps: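 HTRF competition using HEK293T-expressed human PD-1(25-167)-Ig at 20 nM and PD-L1(18-239)-His at 10 nM, compound incubated first with PD-L1 for 15 min, then with PD-1 for 15 min. Signal read as 665/620 nm ratio 30 min after adding Eu anti-Ig and APC anti-His antibodies.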

T1 sequence (Q9NZQ7 with tags, fused parts or gaps): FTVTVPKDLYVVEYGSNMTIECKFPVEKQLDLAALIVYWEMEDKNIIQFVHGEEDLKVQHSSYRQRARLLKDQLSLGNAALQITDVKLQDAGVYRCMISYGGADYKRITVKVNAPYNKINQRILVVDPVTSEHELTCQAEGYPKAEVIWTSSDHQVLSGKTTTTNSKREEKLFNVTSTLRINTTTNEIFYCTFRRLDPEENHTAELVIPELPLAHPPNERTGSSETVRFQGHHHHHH

In the case of `CCCC[C@H]1C(=O)N2C[C@H](O)C[C@@H]2C(=O)N[C@@H](CC(=O)O)C(=O)N[C@@H](C(C)C)C(=O)N(C)[C@@H](Cc2ccccc2)C(=O)N[C@@H](Cc2ccc(O)cc2)C(=O)N2CCC[C@@H]2C(=O)N[C@@H](Cc2c[nH]c3ccccc23)C(=O)N[C@@H](Cc2ccc(O)cc2)C(=O)N[C@@H](CCO)C(=O)N[C@H](C(=O)NCC(N)=O)CSCC(=O)N[C@@H](Cc2cc(F)c(F)c(F)c2)C(=O)N(C)[C@@H](Cc2ccccc2)C(=O)N1C` [Example 10153] ({CH2CO}-[Phe(3,4,5-F3)][NMeF][NMeNle][d(cisHyp)]DV[NMeF]Y[dP]WY[hSer]CG-NH2; thioether N-13), the IC50 was 1 to 9.9 nM.
For the molecule `CCCC[C@H]1C(=O)N(C)[C@@H](CCCC)C(=O)N[C@@H](CCCNC(=N)N)C(=O)NC(C(=O)NCC(N)=O)CSCC(=O)N[C@@H](Cc2ccc(O)cc2)C(=O)N(C)[C@@H](C)C(=O)N[C@@H](CC(N)=O)C(=O)N2CCC[C@H]2C(=O)N[C@@H](CCO)C(=O)N[C@@H](CCO)C(=O)N2CCC[C@H]2C(=O)N[C@@H](Cc2c[nH]c3ccccc23)C(=O)N[C@@H](CO)C(=O)N[C@@H](Cc2csc3ccccc23)C(=O)N1C` (some centres unmarked) [Example 10020] ({CH2CO}-Y[NMeA]NP[hSer][hSer]PWS[Bta][NMeNle][NMeNle]R[ξC]G-NH2; thioether N-14), the IC50 is 1 to 9.9 nM.
For `CCCC[C@H]1C(=O)N(C)[C@@H](CCCC)C(=O)N[C@@H](CN)C(=O)N[C@H](C(=O)NCC(N)=O)CSCC(=O)N[C@@H](Cc2ccc(O)cc2)C(=O)N(C)[C@@H](C)C(=O)N[C@@H](CC(=O)O)C(=O)N2CCC[C@H]2C(=O)N[C@@H](CN)C(=O)N[C@@H](CC(C)C)C(=O)N2C[C@H](O)C[C@H]2C(=O)N[C@@H](Cc2c[nH]c3ccccc23)C(=O)N[C@@H](CO)C(=O)N[C@@H](Cc2cn(CC(=O)O)c3ccccc23)C(=O)N1C` [Example 5227] ({CH2CO}-Y[NMeA]DP[Dap]L[Hyp]WS[Trp(1-CH2COOH)][NMeNle][NMeNle][Dap]CG-NH2; thioether N-14), the IC50 lay within 1 to 9.9 nM.
In the case of `CCCC[C@H]1C(=O)N2C[C@@H](O)C[C@@H]2C(=O)N[C@@H](CC(=O)O)C(=O)N[C@@H](C(C)C)C(=O)N(C)[C@@H](Cc2ccccc2)C(=O)N[C@@H](CCC(=O)O)C(=O)N2CCCC[C@@H]2C(=O)N[C@@H](Cc2cn(CC(=O)O)c3ccccc23)C(=O)N[C@@H](Cc2ccc(O)cc2)C(=O)N[C@@H](CC(C)C)C(=O)N[C@H](C(=O)NCC(N)=O)CSCC(=O)N[C@@H](Cc2cc(F)c(F)c(F)c2)C(=O)N(C)[C@@H](Cc2ccccc2)C(=O)N1C` [Example 10586] ({CH2CO}-[Phe(3,4,5-F3)][NMeF][NMeNle][dHyp]DV[NMeF]E[dPip][Trp(1-CH2COOH)]YLCG-NH2; thioether N-13), the IC50 lay in the range of 1 to 9.9 nM.
Turning to `CCCC[C@H]1C(=O)N2C[C@H](O)C[C@@H]2C(=O)N[C@@H](CC(=O)O)C(=O)N[C@@H](C(C)C)C(=O)N(C)[C@@H](Cc2ccccc2)C(=O)N[C@@H](CC(=O)O)C(=O)N2C[C@H](O)C[C@@H]2C(=O)N[C@@H](Cc2c[nH]c3ccccc23)C(=O)N[C@@H](Cc2ccc(O)cc2)C(=O)N[C@@H](CN)C(=O)N[C@H](C(=O)NCC(N)=O)CSCC(=O)N[C@@H](Cc2cc(F)c(F)c(F)c2)C(=O)N(C)[C@@H](Cc2ccccc2)C(=O)N1C` [Example 9348] ({CH2CO}-[Phe(3,4,5-F3)][NMeF][NMeNle][d(cisHyp)]DV[NMeF]D[d(cisHyp)]WY[Dap]CG-NH2; thioether N-13), the IC50 lay in the range of 10 to 99.9 nM.
Then `CCCC[C@H]1C(=O)N(C)CC(=O)N[C@@H](CC(=O)O)C(=O)N[C@@H](C(C)C)C(=O)N(C)[C@@H](Cc2ccccc2)C(=O)N[C@@H](Cc2ccc(O)cc2)C(=O)N(C)CC(=O)N[C@@H](Cc2c[nH]c3ccccc23)C(=O)N[C@@H](Cc2ccc(O)cc2)C(=O)N[C@@H](CC(C)C)C(=O)N[C@H](C(=O)NCC(N)=O)CSCC(=O)N[C@@H](Cc2cccc3ccccc23)C(=O)N(C)[C@@H](Cc2ccccc2)C(=O)N1C` [Example 3235] ({CH2CO}-[1Nal][NMeF][NMeNle][Sar]DV[NMeF]Y[Sar]WYLCG-NH2; thioether N-13), with 1000 to 10000 nM; and `CCCC[C@H]1C(=O)N2C[C@H](O)C[C@@H]2C(=O)N[C@@H](CC(=O)O)C(=O)N[C@@H](C(C)C)C(=O)N(C)[C@@H](Cc2ccccc2)C(=O)N[C@@H](CCC(=O)O)C(=O)N2C[C@H](O)C[C@@H]2C(=O)N[C@@H](Cc2c[nH]c3ccccc23)C(=O)N[C@@H](Cc2ccc(O)cc2)C(=O)N[C@@H](CC(=O)O)C(=O)N[C@H](C(=O)NCC(N)=O)CSCC(=O)N[C@@H](Cc2cc(F)c(F)c(F)c2)C(=O)N(C)[C@@H](Cc2ccccc2)C(=O)N1C` [Example 9336] ({CH2CO}-[Phe(3,4,5-F3)][NMeF][NMeNle][d(cisHyp)]DV[NMeF]E[d(cisHyp)]WYDCG-NH2; thioether N-13), with 10 to 99.9 nM; and `CCCC[C@H]1C(=O)N(C)[C@@H](CCCC)C(=O)N[C@@H](CCC(=O)O)C(=O)N[C@H](C(=O)NCC(N)=O)CSCC(=O)N[C@@H](Cc2ccc(O)cc2)C(=O)N(C)[C@@H](C)C(=O)N[C@@H](CC(N)=O)C(=O)N2CCC[C@H]2C(=O)N[C@@H](CN)C(=O)N[C@@H](CC(C)C)C(=O)N2C[C@H](O)C[C@H]2C(=O)N[C@@H](Cc2c[nH]c3ccccc23)C(=O)N[C@@H](CCC(=O)O)C(=O)N[C@@H](Cc2c[nH]c3ccccc23)C(=O)N1C` [Example 5232] ({CH2CO}-Y[NMeA]NP[Dap]L[Hyp]WEW[NMeNle][NMeNle]ECG-NH2; thioether N-14), with 1 to 9.9 nM.
The value for `CCCC[C@H]1C(=O)N(C)[C@@H](CCCC)C(=O)N[C@@H](CCCNC(=N)N)C(=O)N[C@H](C(=O)NCC(N)=O)CSCC(=O)N[C@@H](Cc2ccc(Cl)cc2)C(=O)N(C)[C@@H](C)C(=O)N[C@@H](CC(N)=O)C(=O)N2CCC[C@H]2C(=O)N[C@@H](Cc2cnc[nH]2)C(=O)N[C@@H](CCC(=O)O)C(=O)C2C[C@H](O)C[C@H]2C(=O)N[C@@H](Cc2c[nH]c3ccccc23)C(=O)N[C@@H](CCN)C(=O)N[C@@H](Cc2c[nH]c3ccccc23)C(=O)N1C` (some centres unmarked) [Example 7079] ({CH2CO}-[Phe(4-Cl)][NMeA]NPH[X5]W[Dab]W[NMeNle][NMeNle]RCG-NH2; thioether N-13) was 1 to 9.9 nM; that for `CCCC[C@H]1C(=O)N2CCC[C@@H]2C(=O)N[C@@H](CC(=O)O)C(=O)N[C@@H](C(C)C)C(=O)N(C)[C@@H](Cc2ccccc2)C(=O)N[C@@H](CCC(=O)O)C(=O)N2C[C@@H](O)C[C@@H]2C(=O)N[C@@H](Cc2c[nH]c3ccccc23)C(=O)N[C@@H](Cc2ccc(O)cc2)C(=O)N[C@@H](CC(C)C)C(=O)N[C@H](C(=O)NCC(N)=O)CSCC(=O)N[C@@H](Cc2cc(F)c(F)c(F)c2)C(=O)N(C)[C@@H](Cc2ccccc2)C(=O)N1C` [Example 9285] ({CH2CO}-[Phe(3,4,5-F3)][NMeF][NMeNle][dP]DV[NMeF]E[dHyp]WYLCG-NH2; thioether N-13) was 1 to 9.9 nM; that for `CCCC[C@H]1C(=O)N(C)[C@@H](CCCC)C(=O)N[C@@H](C)C(=O)N[C@H](C(=O)NCC(N)=O)CSCC(=O)N[C@@H](Cc2ccc(O)cc2)C(=O)N2CCCC[C@H]2C(=O)N[C@@H](CC(=O)O)C(=O)N2CCC[C@H]2C(=O)N[C@@H](CN)C(=O)N[C@@H](CCC(N)=O)C(=O)N2C[C@H](O)C[C@H]2C(=O)N[C@@H](Cc2c[nH]c3ccccc23)C(=O)N[C@@H](CO)C(=O)N[C@@H](Cc2csc3ccccc23)C(=O)N1C` [Example 1507] ({CH2CO}-Y[Pip]DP[Dap]Q[Hyp]WS[Bta][NMeNle][NMeNle]ACG-NH2; thioether N-14) was 1 to 9.9 nM.

Source of the values: US10538555B2, “Macrocyclic inhibitors of the PD-1/PD-L1 and CD80(B7-1)/PD-L1 protein/protein interactions” (BRISTOL-MYERS SQUIBB COMPANY, priority 2014, dated 2020).
